Data from PMC7607171, “Optimized low‐dose combinatorial drug treatment boosts selectivity and efficacy of colorectal carcinoma treatment” (Molecular Oncology, 2020).

What was measured:
[1] = tested on: DLD1 tumors; test: Subcutaneous xenograft tumor growth; format: in vivo, Swiss nu/nu mice
Experimental: All procedures including animal use were performed in accordance with the Institutional Ethical Committee of Animal Care in Geneva and the Swiss Cantonal Veterinary Office (Authorization number GE‐136‐19). Briefly, female and male Swiss nu/nu mice aged 6–8 weeks were obtained from Charles River (Écully, France). For subcutaneous xenografts mice were inoculated in the left flank with 5x10^6 DLD1 or SW620 cells suspended in 100 µL of cell culture medium, supplemented with 1% FBS.
Drugs were administered through oral gavage based on average body weight of the males (100 µL/mouse) and females (80 µL/mouse) at various concentrations, see Tables S10 and S11.
Solution A: step (1) 30% PEG 400 + 5% propylene glycol + 0.5% Tween 80 and (2) 64.5% sterile H2O. Solution B: step (1) 10% DMSO, (2) 30% PEG 300 + 5% Tween 80 and (3) 55% sterile H2O. […] FOLFOX was administered as 6 mg/kg oxaliplatin two hours before administration of 90 mg/kg leucovorin and 50 mg/kg (DLD1) or 25 mg/kg (SW620) 5‐fluorouracil at day 1 and a repeat of 5‐fluorouracil dosing on day 2.
The Bliss independence model can be used to evaluate the drug interaction potential of a drug mixture. […] The model is based on the probability theory and requires the drug activity of each drug at the selected dose to predict the inhibition rate (IR) at additive doses.

[2] = Pharmacokinetics, dried blood spot LC-MS/MS, mice with DLD1 tumors; format: in vivo; conditions: for Tmax / AUC(0-t) / Cmax: Swiss Nu/nu, mouse, whole blood (dried blood spot), po, regorafenib 15, erlotinib 12.5, selumetinib 5, vemurafenib 75 mg/kg; for AUC(0-t) / Cmax: whole blood, mean ± SD; for AUC(0-t): oral, read-out: AUC0-24h
Experimental: (§1) The pharmacokinetic (PK) study was performed using the dried blood spot method. Mice were treated with CTRL, ODCs, and corresponding monotherapies as described above. To determine the disposition in blood in the first 24h, blood samples (5 µL/mouse) were collected from the tail vein (n = 4 mice) at 2h, 4h, 8h, and 24h time points and transferred onto paper (a filter paper 903 protein saver card from Whatman (MA, USA)). A disk with the entire spot was punched from the paper card and transferred to the HPLC vial tube. Hundred µL of MeOH containing a mix of internal standards was added, and the tube was vortex‐mixed for about 1 min before injecting 10 µL into the LC‐MS/MS system. The LC‐MS/MS system consisted of an API 4,000 triple quadrupole mass spectrometer (AB sciex, Concord, ON, Canada) controlled by analyst 1.6.1 software. The mass spectrometer was operated in the multiple reaction monitoring (MRM) mode with positive electrospray ionization. The instrument was coupled with an Agilent series 1100 (Waldbronn, Germany) LC system. Chromatography was performed on a Phenomenex Kinetex C18 analytical column (50 mm x 2.1 mm, 2.6 um; Torrance, CA, USA). The flow rate was 0.5 mL/min using gradient elution conditions. The method was fully validated before application to this pharmacokinetic study.

[3] = Pharmacokinetics, dried blood spot LC-MS/MS, mice with SW620 tumors; format: in vivo; conditions: for Tmax / AUC(0-t) / Cmax: Swiss Nu/nu, mouse, whole blood (dried blood spot), po, regorafenib 30, vemurafenib 75, GDC-0994 10 mg/kg; for AUC(0-t) / Cmax: whole blood, mean ± SD; for AUC(0-t): oral, read-out: AUC0-24h
Experimental: as §1

[4] = Serum and intratumor drug concentration at experimental endpoint, DLD1 model; format: in vivo, mice; conditions: for concentration at 1 h / Kp at 1 h: Swiss Nu/nu, mouse, oral; for concentration at 1 h: 1h post-treatment at endpoint (day 15); for Kp at 1 h: tumor vs serum, read-out: ratio tumor vs serum; for Kp at 1 h / ratio ODC vs single drug: DLD1 model
Experimental: (§2) At the experimental endpoint, plasma and tumors were collected 1h post‐treatment and part of the tumor tissue was used to determine the intratumor drug concentrations. Plasma and tumor samples were analyzed using the same LC‐MS/MS method used for drug determination in DBS. Before analysis, tumor tissues were homogenized in a 1 mL mixture of water/acetonitrile (30/70). Hundred uL of homogenates were transferred into new tubes and 50 µL of acetonitrile, as well as 50 µL of a mix of internal standards in MeOH were added. Tubes were vortexed and centrifuged for 10 min at 9,000 rpm. The supernatant (100 µL) was evaporated under nitrogen and reconstituted in 100 µL of acetonitrile with 0.1% formic acid/water with 0.1% formic acid (30/70). 10 µL was then injected into the LC‐MS/MS system. Plasma samples were spotted onto the same paper used for whole blood analysis and were extracted and analyzed using the same methods as used for DBS.

[5] = Serum and intratumor drug concentration at experimental endpoint, SW620 model; format: in vivo, mice; conditions: for concentration at 1 h / Kp at 1 h: Swiss Nu/nu, mouse, oral; for concentration at 1 h: 1h post-treatment at endpoint (day 19); for Kp at 1 h: tumor vs serum, read-out: ratio tumor vs serum; for Kp at 1 h / ratio ODC vs single drug: SW620 model
Experimental: as §2

[6] = Clinical plasma pharmacokinetics in patients, plasma concentration limit calculation; format: in vivo; conditions: average plasma concentration calculated from AUC0-24h in patients
Procedure, shortened: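 Plasma concentration limit is the average concentration derived from patient AUC0–24h, using the recommended clinical dose for FDA-approved drugs or the maximum tolerated dose from early trials otherwise. Values reflect AUC data available at December 2017.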

[7] = vemurafenib 25 mg/kg, Exp 2, Day 14
[8] = vemurafenib 75 mg/kg b.i.d., Exp 3, Day 13
[9] = vemurafenib 75 mg/kg, Exp 2, Day 14
[10] = vemurafenib 75 mg/kg, Exp 5, Day 16
[11] = vemurafenib 75 mg/kg, Exp 7, Day 15
[12] = vemurafenib 150 mg/kg b.i.d., Exp 4, Day 16
[13] = given as part of DLD1-specific ODC
[14] = given as part of SW620-specific ODC

CCCS(=O)(=O)Nc1ccc(F)c(C(=O)c2c[nH]c3ncc(-c4ccc(Cl)cc4)cc23)c1F [vemurafenib]
% CTRL (tumor volume) [1, 7]: 80 33 19 % CTRL | Volume [1, 7]: 562 231 133 mm^3 | % CTRL (tumor volume) [1, 8]: 113 88 39 % CTRL | Volume [1, 8]: 388 304 136 mm^3 | % CTRL (tumor volume) [1, 9]: 87 46 23 % CTRL | Volume [1, 9]: 612 319 160 mm^3 | % CTRL (tumor volume) [1, 10]: 94 31 14 % CTRL | Volume [1, 10]: 600 200 89 mm^3 | % CTRL (tumor volume) [1, 11]: 123 69 24 % CTRL | Volume [1, 11]: 619 347 123 mm^3 | % CTRL (tumor volume) [1, 12]: 105 64 28 % CTRL | Volume [1, 12]: 587 354 159 mm^3 | Tmax [2, 13]: 4 h | AUC(0-t) [2, 13]: 14400 ± 2740 ng·h/mL | Cmax [2, 13]: 1050 ± 360 ng/mL | Tmax ([2]; mono): 2 h | AUC(0-t) ([2]; mono): 2180 ± 220 ng·h/mL | Cmax ([2]; mono): 270 ± 80 ng/mL | increase of AUC as part of the ODC vs single-drug treatment ([2]; mice with DLD1 tumors, AUC0-24h): 6.6 x | Tmax [3, 14]: 4 h | AUC(0-t) [3, 14]: 48200 ± 5720 ng·h/mL | Cmax [3, 14]: 4710 ± 650 ng/mL | Tmax ([3]; mono): 2 h | AUC(0-t) ([3]; mono): 19400 ± 3250 ng·h/mL | Cmax ([3]; mono): 2560 ± 640 ng/mL | increase of AUC as part of the ODC vs single-drug treatment ([3]; mice bearing SW620 tumors, AUC0-24h): 2.5 x | concentration at 1 h ([4]; serum, as part of ODC, regorafenib 15, erlotinib 12.5, selumetinib 5, vemurafenib 75 mg/kg, read-out: concentration serum): 910 ± 380 ng/mL | concentration at 1 h ([4]; serum, single drug, regorafenib 15, erlotinib 12.5, selumetinib 5, vemurafenib 75 mg/kg, read-out: concentration serum): 620 ng/mL | concentration at 1 h ([4]; tumor (DLD1), as part of ODC, DLD1 tumor, doses as E156, read-out: concentration tumor): 1650 ± 1000 ng/g | concentration at 1 h ([4]; tumor (DLD1), single drug, DLD1 tumor, doses as E156, read-out: concentration tumor): 790 ng/g | Kp at 1 h ([4]; as part of ODC): 1.81 | Kp at 1 h ([4]; single drug): 1.28 | ratio ODC vs single drug ([4]; serum): 1.48 | ratio ODC vs single drug ([4]; tumor): 2.09 | concentration at 1 h ([5]; serum, as part of ODC, regorafenib 30, selumetinib 0.2, vemurafenib 75, GDC-0994 10 mg/kg, read-out: concentration serum): 1770 ± 770 ng/mL | concentration at 1 h ([5]; serum, single drug, regorafenib 30, selumetinib 0.2, vemurafenib 75, GDC-0994 10 mg/kg, read-out: concentration serum): 1960 ± 1050 ng/mL | concentration at 1 h ([5]; tumor (SW620), as part of ODC, SW620 tumor, doses as E164, read-out: concentration tumor): 890 ± 530 ng/g | Kp at 1 h ([5]; as part of ODC): 0.5 | Kp at 1 h ([5]; single drug): 0.48 | ratio ODC vs single drug ([5]; serum): 0.90 | ratio ODC vs single drug ([5]; tumor): 0.95 | PCL (plasma concentration limit) [6]: 11.1 µM
